According to ChEMBL document CHEMBL1201862, “PubChem BioAssay data set” (2004):
Calls of active or inactive are those of the source.

Columns and labels:
[1] = alpha-synuclein stem-loop luciferase translation blockers – H4 neuroglioma cells, luminescence, confirmation (AID 1988); format: functional, cell-based
CHO = CHO cell viability loss, potency – luminescence, cytotoxicity control for TLR9-MyD88 binding inhibitor project, dose response (AID 588339); format: functional, cell-based, hamster; conditions: Cricetulus griseus;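 note: CHO cells stably coexpressing TLR9 and MyD88 fusions from primary screen; compound exposure lasted 48 hours before viability readout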
[2] = non-specific 3'UTR reporter inhibition in Clone20-Shn3RL – cell-based, Renilla luciferase, cherry-picked, counter-screen for Shn3 inhibitor project, dose response (AID 624133); format: functional
[3] = Luminescence Cell-Based Dose Retest to Confirm Inhibitors of Cancer Stem Cells. [Related pubchem assays (depositor defined):AID2717, AID2721]; format: functional; conditions: Homo sapiens
Beta Lactamase = Beta Lactamase (Pseudomonas aeruginosa, UniProt Q932Y6); assay: BLA reporter interference, concentration series – BLA reporter cells, FRET fluorescence, artefact control for TLR9-MyD88 binding inhibitor project, dose response (AID 588341); format: cell-based;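 note: cell based assay in CHO-K1 cells stably expressing beta-lactamase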
Sequence of Beta Lactamase (Q932Y6 whole entry): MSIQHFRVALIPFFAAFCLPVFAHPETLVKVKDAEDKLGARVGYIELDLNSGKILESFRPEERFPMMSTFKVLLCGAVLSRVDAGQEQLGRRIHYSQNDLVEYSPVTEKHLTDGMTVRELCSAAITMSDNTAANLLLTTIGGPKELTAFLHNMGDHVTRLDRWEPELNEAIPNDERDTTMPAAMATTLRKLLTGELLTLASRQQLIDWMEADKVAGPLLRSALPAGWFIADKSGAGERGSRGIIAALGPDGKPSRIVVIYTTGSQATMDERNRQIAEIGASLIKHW

[4] = loss of viability in HepG2 cells – cell-based, CellTiter-Glo, cherry-picked, cytotoxicity control for Shn3 inhibitor project, dose response (AID 624134); format: functional
Beta-galactosidase = Beta-galactosidase (Escherichia coli, UniProt Q8VNN2); assay: PubChem AID 485352; format: functional
Sequence of Beta-galactosidase (Q8VNN2 whole entry): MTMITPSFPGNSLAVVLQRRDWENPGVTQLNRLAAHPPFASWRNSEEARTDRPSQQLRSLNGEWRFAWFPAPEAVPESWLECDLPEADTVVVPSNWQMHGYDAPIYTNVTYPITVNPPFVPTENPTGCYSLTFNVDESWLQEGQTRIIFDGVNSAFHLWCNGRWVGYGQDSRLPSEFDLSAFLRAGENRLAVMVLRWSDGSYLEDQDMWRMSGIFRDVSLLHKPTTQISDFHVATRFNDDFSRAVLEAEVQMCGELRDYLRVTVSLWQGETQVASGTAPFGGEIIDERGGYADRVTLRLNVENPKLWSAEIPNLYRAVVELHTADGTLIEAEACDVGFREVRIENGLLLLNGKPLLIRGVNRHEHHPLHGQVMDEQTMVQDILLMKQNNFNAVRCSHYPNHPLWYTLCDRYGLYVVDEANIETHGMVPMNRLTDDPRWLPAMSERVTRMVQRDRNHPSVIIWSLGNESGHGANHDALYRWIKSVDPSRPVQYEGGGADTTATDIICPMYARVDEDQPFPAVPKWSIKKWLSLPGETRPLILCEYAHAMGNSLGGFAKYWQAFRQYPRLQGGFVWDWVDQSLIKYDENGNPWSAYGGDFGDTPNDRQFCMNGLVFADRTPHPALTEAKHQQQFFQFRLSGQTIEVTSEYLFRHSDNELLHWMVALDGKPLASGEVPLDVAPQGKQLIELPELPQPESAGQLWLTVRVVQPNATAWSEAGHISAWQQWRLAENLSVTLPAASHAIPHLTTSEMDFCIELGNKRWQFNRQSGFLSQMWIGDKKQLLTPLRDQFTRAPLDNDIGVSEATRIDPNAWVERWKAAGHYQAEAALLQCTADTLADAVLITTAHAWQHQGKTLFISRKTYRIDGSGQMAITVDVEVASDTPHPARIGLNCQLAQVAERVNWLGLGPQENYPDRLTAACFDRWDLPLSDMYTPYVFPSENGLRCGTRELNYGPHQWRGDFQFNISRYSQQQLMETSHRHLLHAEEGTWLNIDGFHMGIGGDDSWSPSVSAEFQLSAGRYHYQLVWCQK

[5] = reduction of Shn3 3'UTR-driven luciferase in osteoblasts – cell-based, Clone20 osteoblasts, firefly luciferase, cherry-picked, dose response (AID 624132); format: functional;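 note: firefly luciferase luminescence from reporter carrying the Shn3 3'UTR in osteoblasts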
INS1 = assay: INS-1E survival protection against cytokine death – cell-based, luminescence, retest, dose response (AID 449756); format: functional; conditions: Rattus norvegicus;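 note: cell death triggered by IL-1 beta plus TNF-alpha plus IFN-gamma mixture; protective hits raise ATP signal compared with cytokine alone wells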
[6] = luciferase reporter signal suppression in cells – H4 neuroglioma cells, luminescence, dose response (AID 1990); format: functional, cell-based
[7] = Luminescence Cell-Based Dose Response HTS to Identify Inhibitors of 5'UTR Stem-Loop Driven Prion Protein mRNA Translation in H4 Neuroglioblastoma Cells. [Related pubchem assays: 1827 (Project Summary), 1813 (Primary HTS)]; format: functional
[8] = biological target: Heat shock protein HSP 90-alpha (Homo sapiens, UniProt P07900); format: functional, organism-based
[9] = biological target: T1, Type-1 angiotensin II receptor (Homo sapiens, UniProt P30556); assay: antagonism of angiotensin II type 1 receptor – cell-based, uHTS hits, selectivity assay for APJ receptor antagonist project, dose response (AID 463214); format: functional;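 note: antagonist potency against angiotensin II stimulated AT1 response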
T1 sequence (P30556 whole entry): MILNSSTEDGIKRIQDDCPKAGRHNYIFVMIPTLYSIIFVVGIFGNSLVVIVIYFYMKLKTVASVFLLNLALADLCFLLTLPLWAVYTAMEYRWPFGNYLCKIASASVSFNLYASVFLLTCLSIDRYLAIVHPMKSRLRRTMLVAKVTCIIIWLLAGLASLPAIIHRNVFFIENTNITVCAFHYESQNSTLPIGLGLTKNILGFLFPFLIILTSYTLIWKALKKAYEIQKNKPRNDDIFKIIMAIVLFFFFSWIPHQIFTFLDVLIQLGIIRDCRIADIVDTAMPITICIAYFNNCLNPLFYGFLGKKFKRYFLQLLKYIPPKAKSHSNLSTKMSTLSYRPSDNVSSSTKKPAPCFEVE

[10] = biological target: T2, Sentrin-specific protease 6 (Homo sapiens, UniProt Q9GZR1); assay: inhibition of human SENP6 catalytic domain – biochemical, luminescence, set 2, SAR follow-up (AID 588598); format: functional
T2 sequence (Q9GZR1 whole entry): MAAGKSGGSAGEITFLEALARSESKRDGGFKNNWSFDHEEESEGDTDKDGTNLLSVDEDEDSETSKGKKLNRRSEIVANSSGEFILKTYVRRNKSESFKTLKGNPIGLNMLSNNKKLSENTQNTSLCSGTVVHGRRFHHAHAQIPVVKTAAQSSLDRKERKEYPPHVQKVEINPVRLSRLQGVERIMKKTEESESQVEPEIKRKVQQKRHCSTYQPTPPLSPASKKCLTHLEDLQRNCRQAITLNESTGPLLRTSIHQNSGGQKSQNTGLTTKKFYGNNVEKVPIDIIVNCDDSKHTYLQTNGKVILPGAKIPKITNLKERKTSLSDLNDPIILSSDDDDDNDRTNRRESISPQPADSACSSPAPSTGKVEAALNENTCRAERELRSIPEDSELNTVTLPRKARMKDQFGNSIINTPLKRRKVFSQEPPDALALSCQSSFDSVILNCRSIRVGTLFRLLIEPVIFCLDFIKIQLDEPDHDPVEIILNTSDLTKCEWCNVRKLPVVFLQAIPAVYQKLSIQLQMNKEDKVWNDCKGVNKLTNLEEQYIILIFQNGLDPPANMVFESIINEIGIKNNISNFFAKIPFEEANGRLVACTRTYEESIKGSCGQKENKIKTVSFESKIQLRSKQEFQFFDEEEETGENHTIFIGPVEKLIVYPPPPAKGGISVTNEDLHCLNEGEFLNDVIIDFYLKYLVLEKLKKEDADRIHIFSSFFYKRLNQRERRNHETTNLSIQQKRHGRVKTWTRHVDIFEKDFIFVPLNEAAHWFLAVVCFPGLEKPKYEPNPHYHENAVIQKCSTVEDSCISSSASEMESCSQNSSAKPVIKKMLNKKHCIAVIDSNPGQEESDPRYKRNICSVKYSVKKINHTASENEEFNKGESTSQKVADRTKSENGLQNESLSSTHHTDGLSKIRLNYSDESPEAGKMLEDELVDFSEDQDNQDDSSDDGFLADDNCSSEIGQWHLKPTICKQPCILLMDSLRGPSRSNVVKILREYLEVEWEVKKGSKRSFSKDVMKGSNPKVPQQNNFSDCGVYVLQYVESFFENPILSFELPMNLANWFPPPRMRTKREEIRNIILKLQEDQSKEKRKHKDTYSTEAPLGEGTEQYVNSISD

Caspase-3 [11] = biological target: T3, Caspase-3 (Homo sapiens, UniProt P42574); assay: inhibition of recombinant caspase-3 activity – biochemical, luminescence, set 2, selectivity assay for SENP protease inhibitor project, SAR follow-up (AID 588599); format: functional
T3 sequence (P42574 whole entry): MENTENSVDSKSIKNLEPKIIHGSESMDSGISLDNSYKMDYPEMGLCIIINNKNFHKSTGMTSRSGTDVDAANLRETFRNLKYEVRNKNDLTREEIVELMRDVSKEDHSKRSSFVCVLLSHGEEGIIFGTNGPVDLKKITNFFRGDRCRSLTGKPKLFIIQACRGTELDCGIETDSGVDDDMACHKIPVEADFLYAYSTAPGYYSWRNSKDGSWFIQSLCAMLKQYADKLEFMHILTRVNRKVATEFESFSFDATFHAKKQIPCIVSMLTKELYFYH

[12] = biological target: T4, Sentrin-specific protease 8 (Homo sapiens, UniProt Q96LD8); assay: inhibition of human SENP8 cleavage activity – biochemical, luminescence, SAR follow-up (AID 504501); format: functional
T4 sequence (Q96LD8 whole entry): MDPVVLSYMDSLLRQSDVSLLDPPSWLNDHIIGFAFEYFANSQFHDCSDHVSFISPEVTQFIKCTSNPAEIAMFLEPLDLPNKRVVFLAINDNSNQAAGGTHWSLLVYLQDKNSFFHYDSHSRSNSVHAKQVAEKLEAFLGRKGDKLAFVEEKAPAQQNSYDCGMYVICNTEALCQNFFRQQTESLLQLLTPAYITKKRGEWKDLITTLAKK

[13] = biological target: T4, Sentrin-specific protease 8; assay: inhibition of sentrin protease 8 – biochemical, luminescence, set 2, SAR follow-up (AID 588601); format: functional
[14] = biological target: T5, Sentrin-specific protease 7 (Homo sapiens, UniProt Q9BQF6); assay: inhibition of human SENP7 cleavage activity – biochemical, luminescence, SAR follow-up (AID 504497); format: functional
T5 sequence (Q9BQF6 whole entry): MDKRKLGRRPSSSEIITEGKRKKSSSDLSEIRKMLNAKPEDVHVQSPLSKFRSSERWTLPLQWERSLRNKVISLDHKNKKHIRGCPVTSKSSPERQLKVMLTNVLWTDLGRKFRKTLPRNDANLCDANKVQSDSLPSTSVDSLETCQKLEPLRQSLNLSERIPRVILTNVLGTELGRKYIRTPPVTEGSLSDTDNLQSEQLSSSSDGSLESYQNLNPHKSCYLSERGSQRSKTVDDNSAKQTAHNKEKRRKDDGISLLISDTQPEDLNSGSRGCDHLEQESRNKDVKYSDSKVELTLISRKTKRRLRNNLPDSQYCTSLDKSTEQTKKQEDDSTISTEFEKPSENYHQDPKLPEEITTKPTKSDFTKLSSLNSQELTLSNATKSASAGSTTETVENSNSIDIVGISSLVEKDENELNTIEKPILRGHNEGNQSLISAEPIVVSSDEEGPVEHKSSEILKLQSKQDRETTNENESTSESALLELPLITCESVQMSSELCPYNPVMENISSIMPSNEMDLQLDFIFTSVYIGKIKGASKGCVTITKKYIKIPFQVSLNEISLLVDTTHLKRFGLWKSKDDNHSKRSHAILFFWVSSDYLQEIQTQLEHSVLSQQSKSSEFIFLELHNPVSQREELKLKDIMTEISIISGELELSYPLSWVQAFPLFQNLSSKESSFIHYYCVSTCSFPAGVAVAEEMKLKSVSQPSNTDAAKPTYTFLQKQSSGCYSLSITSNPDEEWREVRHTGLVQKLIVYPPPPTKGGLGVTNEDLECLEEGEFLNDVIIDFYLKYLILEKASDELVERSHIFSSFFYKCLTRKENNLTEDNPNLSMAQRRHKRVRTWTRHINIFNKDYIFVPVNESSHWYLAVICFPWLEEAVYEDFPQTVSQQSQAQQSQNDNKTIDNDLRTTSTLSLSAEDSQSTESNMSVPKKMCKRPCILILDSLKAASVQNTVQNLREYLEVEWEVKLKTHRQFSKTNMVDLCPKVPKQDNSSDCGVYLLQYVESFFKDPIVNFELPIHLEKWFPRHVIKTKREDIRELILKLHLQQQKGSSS

[15] = biological target: T5, Sentrin-specific protease 7; assay: inhibition of human SENP7 cleavage activity – biochemical, luminescence, set 2, SAR follow-up (AID 588600); format: functional
[16] = biological target: T2, Sentrin-specific protease 6; assay: SAR Analysis of small molecule inhibitors of Sentrin-specific protease 6 (SENP6) using a Luminescent assay. [Related pubchem assays (depositor defined):AID2582, AID2599]; format: functional
Caspase-3 [17] = biological target: T3, Caspase-3; assay: SAR Analysis of small molecule inhibitors of Sentrin-specific proteases (SENPs) using a Caspase-3 Selectivity assay. [Related pubchem assays (depositor defined):AID2540, AID2599, AID434973, AID489001]; format: functional
[18] = blockade of melanocortin 4 receptor signaling – cell-based, plate reader, cherry pick, counter-screen for LGR2 antagonist project, dose response (AID 743444); format: functional;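 note: transfected HEK 293 cells stimulated with alpha-MSH peptide; potency of inhibitors of the alpha-MSH evoked signal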
HEK293 = assay: EBV LMP1 TES2 canonical NF-kB signalling blockers – cell-based, HEK293, luciferase, cherry-pick, dose response (AID 588343); format: functional; conditions: Homo sapiens
[19] = biological target: Latent membrane protein 1 (Human herpesvirus 4 (strain B95-8), UniProt P03230); assay: LMP1 TES1 pathway selectivity over dsRED control – imaging, HEK293T, dual-color eGFP/dsRED, cherry-picks, selectivity assay for LMP1 NF-kB inhibitor project, dose response (AID 588398); format: functional, cell-based
Sequence of Latent membrane protein 1 (P03230 whole entry): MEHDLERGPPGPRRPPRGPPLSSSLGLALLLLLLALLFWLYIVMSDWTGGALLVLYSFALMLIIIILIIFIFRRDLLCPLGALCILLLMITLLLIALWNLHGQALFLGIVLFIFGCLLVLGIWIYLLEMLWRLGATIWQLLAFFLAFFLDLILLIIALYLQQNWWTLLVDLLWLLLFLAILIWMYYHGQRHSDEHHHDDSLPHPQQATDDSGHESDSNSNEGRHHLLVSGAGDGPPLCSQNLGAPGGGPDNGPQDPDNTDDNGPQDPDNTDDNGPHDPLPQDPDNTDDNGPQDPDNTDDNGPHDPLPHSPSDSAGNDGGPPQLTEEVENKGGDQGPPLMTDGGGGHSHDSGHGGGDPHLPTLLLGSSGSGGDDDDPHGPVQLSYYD

[20] = blockers of bursicon-stimulated LGR2 cAMP reporter – cell-based, HEK293, CRE-luciferase reporter, cherry pick, set 2, dose response (AID 743343); format: functional;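 note: transfected cells were stimulated with diluted bursicon conditioned medium after compound addition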
[21] = A549 cell cytotoxicity, dose response, cytotoxicity control, plate reader, cherry-pick, antagonist series (AID 743412); format: functional, cell-based
[22] = biological target: T6, Nuclear receptor subfamily 0 group B member 1 (Homo sapiens, UniProt P51843); format: functional, cell-based;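 note: HEK293T cells transfected with SF-1 and DAX-1 plus StAR promoter luciferase reporter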
T6 sequence (P51843 whole entry): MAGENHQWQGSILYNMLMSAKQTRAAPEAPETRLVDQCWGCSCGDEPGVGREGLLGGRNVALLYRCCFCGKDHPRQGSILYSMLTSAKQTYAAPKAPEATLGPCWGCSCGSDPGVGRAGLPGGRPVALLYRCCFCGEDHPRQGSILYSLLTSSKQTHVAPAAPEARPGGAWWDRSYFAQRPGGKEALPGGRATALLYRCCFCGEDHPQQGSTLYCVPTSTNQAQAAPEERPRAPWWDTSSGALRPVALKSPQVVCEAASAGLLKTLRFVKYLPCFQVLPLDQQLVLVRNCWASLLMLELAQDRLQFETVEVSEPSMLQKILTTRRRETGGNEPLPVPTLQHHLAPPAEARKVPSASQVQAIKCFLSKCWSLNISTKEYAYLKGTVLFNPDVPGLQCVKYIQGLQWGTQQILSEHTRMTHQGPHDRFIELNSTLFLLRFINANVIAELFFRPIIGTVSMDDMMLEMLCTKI

cells = format: functional, cell-based

COc1ccc(OC)c(NC(=O)c2nc(S(=O)(=O)Cc3ccccc3)ncc2Cl)c1
EC50 [1]: 11.6 µM (active)
IC50 (CHO): 1.05 µM (active)
AC50 [2]: 3.79 µM (active)
AC50 [3]: 3.48 µM (active)
IC50 (Beta Lactamase): 6.72 µM (active)
AC50 [4]: 13.7 µM (active)
EC50 (Beta-galactosidase): > 40 µM (inactive)
AC50 [5]: 2.08 µM (active)
AC50 (INS1): 5.38 µM (active)
EC50 [6]: 12.2 µM (active)
EC50 [7]: > 120 µM (not active)
AC50 [8]: 2.95 µM (active)
IC50 [9]: 5.87 µM (active)

O=C(Nc1nc2ccccc2s1)c1cccs1
IC50 [10]: 2.07 µM (active)
IC50 (Caspase-3 [11]): 6.86 µM (active)
IC50 [12]: > 99 µM (inactive)
IC50 [13]: 2.2 µM (active)
IC50 [14]: 2.5 µM (active)
IC50 [15]: 2.67 µM (active)
IC50 [16]: > 99 µM (inactive)
IC50 (Caspase-3 [17]): 72 µM (active)

c1ccc(-c2cn3c4c(sc3n2)CCCC4)cc1
AC50 [18]: 4.25 µM (active)
AC50 (HEK293): 1.92 µM (active)
AC50 [19]: 31.6 µM (active)
AC50 [20]: 2.72 µM (active)
AC50 [21]: 41.1 µM (active)
IC50 [22]: > 67.6 µM (inactive)
IC50 (cells): > 67.6 µM (inactive)
